The values that follow come from patent publication US20250034167A1, “HETEROCYCLIC COMPOUNDS AND METHODS OF USE” (AMGEN INC., priority 2021, published 2025).

Assay [1] addresses His-tagged KRAS G12D protein (Homo sapiens, UniProt P01116, G12D). The assay can be described thus: biochemical.
Description: The plate was incubated for 30 minutes at room temperature. Biotinylated KRPep-2d substrate (Amgen) was diluted to nM in Assay Buffer and 2 μL was added to all wells and incubated for 1 hour at room temperature. Detection Reagent (0.4 nM LANCE Eu-W1024 Anti-6×His (Perkin Elmer AD0401), 5 nM streptavidin-d2 (Cisbio 610SADLA)) was prepared in Assay Buffer, then 4 µL was added to the plate and incubated for 1 hour at room temperature.
The test system of assay [2] is Phosphorylation of ERK1/2 in AsPC-1 cells. Put plainly: Phospho-ERK1/2 MSD Assay. The format is cell-based. The conditions noted are these: Homo sapiens, ASPC1, 2 h, read-out: 2 h p-ERK (AsPC-1 cells), IC50, AsPC-1 cells, 2 h compound treatment. Here is the method: Sixteen hours prior to compound treatment, AsPC-1 cells were seeded in 96-well cell culture plates at a density of 25,000 cells/well and incubated at 37° C., 5% CO2. A compound dose-response titration was diluted in growth media, added to appropriate wells of a cell culture plate, and then incubated at 37° C., 5% CO2 for 2 hours.

A word on the IC50: it is the midpoint of a concentration-inhibition curve.

Sequence of His-tagged KRAS G12D protein (P01116 1-188 isoform P01116-2 G12D): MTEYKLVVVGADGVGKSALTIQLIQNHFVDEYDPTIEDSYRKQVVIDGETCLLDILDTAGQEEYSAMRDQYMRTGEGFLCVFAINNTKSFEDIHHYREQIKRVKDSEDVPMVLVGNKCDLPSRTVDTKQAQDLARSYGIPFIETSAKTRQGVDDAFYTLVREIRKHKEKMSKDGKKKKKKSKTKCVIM

On to `CCc1c(F)ccc2cc(O)cc(-c3ncc4c(N5CCC[C@@H](S(N)(=O)=O)C5)nc(OC[C@@]56CCCN5C[C@H](F)C6)nc4c3F)c12` [Example 1, (R)-1-(7-(8-Ethyl-7-fluoro-3-hydroxynaphthalen-1-yl)-8-fluoro-2-(((2R,7aS)-2-fluorotetrahydro-1H-pyrrolizin-7a(5H)-yl)methoxy)pyrido[4,3-d]pyrimidin-4-yl)piperidine-3-sulfonamide], for which the IC50 in assay [1] worked out at 1 nM; in assay [2], 165 nM.

As to `CCc1c(F)ccc2cc(O)cc(-c3ncc4c(N5CCCCCC5)nc(OC[C@@]56CCCN5C[C@H](F)C6)nc4c3F)c12` [Example 2, 4-(4-(Azepan-1-yl)-8-fluoro-2-(((2R,7aS)-2-fluorotetrahydro-1H-pyrrolizin-7a(5H)-yl)methoxy)pyrido[4,3-d]pyrimidin-7-yl)-5-ethyl-6-fluoronaphthalen-2-ol], the figures for the IC50 in assay [1] and in assay [2] were 1 nM and 115 nM, respectively.

With `CCc1c(F)ccc2cc(O)cc(-c3ncc4c(N5CCC(C(N)=O)C5)nc(OC[C@@]56CCCN5C[C@H](F)C6)nc4c3F)c12` (stereo partly drawn) [Example 3, 1-(7-(8-Ethyl-7-fluoro-3-hydroxynaphthalen-1-yl)-8-fluoro-2-(((2R,7aS)-2-fluorotetrahydro-1H-pyrrolizin-7a(5H)-yl)methoxy)pyrido[4,3-d]pyrimidin-4-yl)pyrrolidine-3-carboxamide], the figures for the IC50 in assay [1] and in assay [2] were 9 nM and above 10000 nM, respectively.

For the compound `CCc1c(F)ccc2cc(O)cc(-c3ncc4c(N5CCC[C@H]5C(N)=O)nc(OC[C@@]56CCCN5C[C@H](F)C6)nc4c3F)c12` [Example 4, (S)-1-(7-(8-Ethyl-7-fluoro-3-hydroxynaphthalen-1-yl)-8-fluoro-2-(((2R,7aS)-2-fluorotetrahydro-1H-pyrrolizin-7a(5H)-yl)methoxy)pyrido[4,3-d]pyrimidin-4-yl)pyrrolidine-2-carboxamide], the IC50 in assay [1] is 21 nM; in assay [2], above 10000 nM.

On to `CCc1c(F)ccc2cc(O)cc(-c3ncc4c(N5CCC(C(N)=O)CC5)nc(OC[C@@]56CCCN5C[C@H](F)C6)nc4c3F)c12` [Example 6, 1-(7-(8-Ethyl-7-fluoro-3-hydroxynaphthalen-1-yl)-8-fluoro-2-(((2R,7aS)-2-fluorotetrahydro-1H-pyrrolizin-7a(5H)-yl)methoxy)pyrido[4,3-d]pyrimidin-4-yl)piperidine-4-carboxamide], for which the IC50 in assay [1] was 55 nM; in assay [2], above 10000 nM.

Regarding `CCc1c(F)ccc2cc(O)cc(-c3ncc4c(N5CCC[C@H](S(N)(=O)=O)C5)nc(OC[C@@]56CCCN5C[C@H](F)C6)nc4c3F)c12` [Example 7, (S)-1-(7-(8-Ethyl-7-fluoro-3-hydroxynaphthalen-1-yl)-8-fluoro-2-(((2R,7aS)-2-fluorotetrahydro-1H-pyrrolizin-7a(5H)-yl)methoxy)pyrido[4,3-d]pyrimidin-4-yl)piperidine-3-sulfonamide], the IC50 in assay [1] is 37 nM; in assay [2], above 10000 nM.

Regarding `CCc1c(F)ccc2cc(O)cc(-c3ncc4c(N5CC(CC(N)=O)C5)nc(OC[C@@]56CCCN5C[C@H](F)C6)nc4c3F)c12` [Example 8, 2-(1-(7-(8-Ethyl-7-fluoro-3-hydroxynaphthalen-1-yl)-8-fluoro-2-(((2R,7aS)-2-fluorotetrahydro-1H-pyrrolizin-7a(5H)-yl)methoxy)pyrido[4,3-d]pyrimidin-4-yl)azetidin-3-yl)acetamide], the IC50 in assay [1] was 82 nM; in assay [2], above 10000 nM.

In the case of `CCc1c(F)ccc2cc(O)cc(-c3ncc4c(N5CC6CC(O)C6C5)nc(OC[C@@]56CCCN5C[C@H](F)C6)nc4c3F)c12` (stereo partly drawn) [Example 9, 3-(7-(8-Ethyl-7-fluoro-3-hydroxynaphthalen-1-yl)-8-fluoro-2-(((2R,7aS)-2-fluorotetrahydro-1H-pyrrolizin-7a(5H)-yl)methoxy)pyrido[4,3-d]pyrimidin-4-yl)-3-azabicyclo[3.2.0]heptan-6-ol], the IC50 in assay [1] came to 5 nM; in assay [2], 1340 nM.

As for `CCc1c(F)ccc2cc(O)cc(-c3ncc4c(N5C[C@@H](O)[C@@H](O)C5)nc(OC[C@@]56CCCN5C[C@H](F)C6)nc4c3F)c12` [Example 11, (3S,4R)-1-(7-(8-Ethyl-7-fluoro-3-hydroxynaphthalen-1-yl)-8-fluoro-2-(((2R,7aS)-2-fluorotetrahydro-1H-pyrrolizin-7a(5H)-yl)methoxy)pyrido[4,3-d]pyrimidin-4-yl)pyrrolidine-3,4-diol], the IC50 in assay [1] was 3 nM; in assay [2], above 10000 nM.

For `Oc1cc(-c2ncc3c(N4CCC[C@@H](O)C4)nc(OC[C@@]45CCCN4C[C@H](F)C5)nc3c2F)c2c(F)c(F)ccc2c1` [Example 12, (R)-1-(7-(7,8-Difluoro-3-hydroxynaphthalen-1-yl)-8-fluoro-2-(((2R,7aS)-2-fluorotetrahydro-1H-pyrrolizin-7a(5H)-yl)methoxy)pyrido[4,3-d]pyrimidin-4-yl)piperidin-3-ol], the IC50 worked out at 2 nM in assay [1] and 377 nM in assay [2].

Consider `CCc1cccc2cc(O)cc(-c3ncc4c(N5CCC[C@@H](O)C5)nc(OC[C@@]56CCCN5C[C@H](F)C6)nc4c3F)c12` [Example 13, (R)-1-(7-(8-Ethyl-3-hydroxynaphthalen-1-yl)-8-fluoro-2-(((2R,7aS)-2-fluorotetrahydro-1H-pyrrolizin-7a(5H)-yl)methoxy)pyrido[4,3-d]pyrimidin-4-yl)piperidin-3-ol], for which the figures for the IC50 in assay [1] and in assay [2] were 2 nM and 107 nM, respectively.

As for `CCc1c(F)ccc2cc(O)cc(-c3ncc4c(N5C[C@H]6CC[C@@H]5C(O)C6)nc(OC[C@@]56CCCN5C[C@H](F)C6)nc4c3F)c12` (stereo partly drawn) [Example 17, (1R,4S)-2-(7-(8-Ethyl-7-fluoro-3-hydroxynaphthalen-1-yl)-8-fluoro-2-(((2R,7aS)-2-fluorotetrahydro-1H-pyrrolizin-7a(5H)-yl)methoxy)pyrido[4,3-d]pyrimidin-4-yl)-2-azabicyclo[2.2.2]octan-6-ol], the values for the IC50 in assay [1] and in assay [2] were 38 nM and 3180 nM, respectively.

Consider `Oc1cc(-c2ncc3c(N4CC5CC(O)C(C5)C4)nc(OC[C@@]45CCCN4C[C@H](F)C5)nc3c2F)c2c(F)c(F)ccc2c1` (stereo partly drawn) [Example 18, 3-(7-(7,8-Difluoro-3-hydroxynaphthalen-1-yl)-8-fluoro-2-(((2R,7aS)-2-fluorotetrahydro-1H-pyrrolizin-7a(5H)-yl)methoxy)pyrido[4,3-d]pyrimidin-4-yl)-3-azabicyclo[3.2.1]octan-6-ol], for which the IC50 in assay [1] worked out at 3 nM; in assay [2], 105 nM.

On to `CCc1c(F)ccc2cc(O)cc(-c3ncc4c(N5CCCC(CO)(CCl)C5)nc(OC[C@@]56CCCN5C[C@H](F)C6)nc4c3F)c12` (stereo partly drawn) [Example 22, 4-(4-(3-(Chloromethyl)-3-(hydroxymethyl)piperidin-1-yl)-8-fluoro-2-(((2R,7aS)-2-fluorotetrahydro-1H-pyrrolizin-7a(5H)-yl)methoxy)pyrido[4,3-d]pyrimidin-7-yl)-5-ethyl-6-fluoronaphthalen-2-ol], for which the IC50 in assay [1] stood at 4 nM; in assay [2], 297 nM.

Regarding `C[C@@]1(O)CCCN(c2nc(OC[C@@]34CCCN3C[C@H](F)C4)nc3c(F)c(-c4cccc5ccc(F)c(F)c45)ncc23)C1` [Example 49, (R)-1-(7-(7,8-Difluoronaphthalen-1-yl)-8-fluoro-2-(((2R,7aS)-2-fluorotetrahydro-1H-pyrrolizin-7a(5H)-yl)methoxy)pyrido[4,3-d]pyrimidin-4-yl)-3-methylpiperidin-3-ol], the IC50 in assay [1] came to 17 nM; in assay [2], 991 nM.

On to `C#Cc1c(F)ccc2cc(O)cc(-c3ncc4c(N5CCCC(C)(O)C5)nc(OCC56CCCN5CC(F)C6)nc4c3F)c12` [Example 52, (R)-1-(7-(8-Ethynyl-7-fluoro-3-hydroxynaphthalen-1-yl)-8-fluoro-2-(((2R,7aS)-2-fluorotetrahydro-1H-pyrrolizin-7a(5H)-yl)methoxy)pyrido[4,3-d|pyrimidin-4-yl)-3-methylpiperidin-3-ol], for which the IC50 is 1 nM in assay [1] and 8 nM in assay [2].

In the case of `C[C@@]1(O)CCCN(c2nc(OC[C@@]34CCCN3C[C@H](F)C4)nc3c(F)c(-c4cc(O)cc5ccc(F)c(Cl)c45)ncc23)C1` [Example 56, (R)-1-(7-(8-Chloro-7-fluoro-3-hydroxynaphthalen-1-yl)-8-fluoro-2-(((2R,7aS)-2-fluorotetrahydro-1H-pyrrolizin-7a(5H)-yl)methoxy)pyrido[4,3-d]pyrimidin-4-yl)-3-methylpiperidin-3-ol], the IC50 in assay [1] stood at 1 nM; in assay [2], 33 nM.

For the compound `C[C@@]1(O)CCCN(c2nc(OC[C@@]34CCCN3C[C@H](F)C4)nc3c(F)c(-c4cc(O)cc5cccc(F)c45)ncc23)C1` [Example 57, (R)-1-(8-Fluoro-7-(8-fluoro-3-hydroxynaphthalen-1-yl)-2-(((2R,7aS)-2-fluorotetrahydro-1H-pyrrolizin-7a(5H)-yl)methoxy)pyrido[4,3-d]pyrimidin-4-yl)-3-methylpiperidin-3-ol], the concentration for half-maximal inhibition (IC50) in assay [1] came to 2 nM; in assay [2] it was 115 nM.

With `CCc1cccc2cc(O)cc(-c3ncc4c(N5CCC[C@@](C)(O)C5)nc(OC[C@@]56CCCN5C[C@H](F)C6)nc4c3F)c12` [Example 58, (R)-1-(7-(8-Ethyl-3-hydroxynaphthalen-1-yl)-8-fluoro-2-(((2R,7aS)-2-fluorotetrahydro-1H-pyrrolizin-7a(5H)-yl)methoxy)pyrido[4,3-d]pyrimidin-4-yl)-3-methylpiperidin-3-ol], the IC50 in assay [1] came to 1 nM; in assay [2] it was 9 nM.

For the compound `C[C@@]1(O)CCCN(c2nc(OC[C@@]34CCCN3C[C@H](F)C4)nc3c(F)c(-c4cc(O)cc5ccccc45)ncc23)C1` [Example 60, (R)-1-(8-Fluoro-2-(((2R,7aS)-2-fluorotetrahydro-1H-pyrrolizin-7a(5H)-yl)methoxy)-7-(3-hydroxynaphthalen-1-yl)pyrido[4,3-d]pyrimidin-4-yl)-3-methylpiperidin-3-ol], the results for the IC50 in assay [1] and in assay [2] were 2 nM and 330 nM, respectively.
